PMC6930480, “Inhibition of Porcine Aminopeptidase M (pAMP) by the Pentapeptide Microginins” (Molecules, 2019)
Peptide text beside a SMILES is read from it.

Target: T1, porcine aminopeptidase M (EC 3.4.11.2) (Sus scrofa, UniProt P15145)
T1 construct: purchased Sigma Aldrich; host or cells: pig kidney (tissue-derived)
T1 sequence (P15145 1-963): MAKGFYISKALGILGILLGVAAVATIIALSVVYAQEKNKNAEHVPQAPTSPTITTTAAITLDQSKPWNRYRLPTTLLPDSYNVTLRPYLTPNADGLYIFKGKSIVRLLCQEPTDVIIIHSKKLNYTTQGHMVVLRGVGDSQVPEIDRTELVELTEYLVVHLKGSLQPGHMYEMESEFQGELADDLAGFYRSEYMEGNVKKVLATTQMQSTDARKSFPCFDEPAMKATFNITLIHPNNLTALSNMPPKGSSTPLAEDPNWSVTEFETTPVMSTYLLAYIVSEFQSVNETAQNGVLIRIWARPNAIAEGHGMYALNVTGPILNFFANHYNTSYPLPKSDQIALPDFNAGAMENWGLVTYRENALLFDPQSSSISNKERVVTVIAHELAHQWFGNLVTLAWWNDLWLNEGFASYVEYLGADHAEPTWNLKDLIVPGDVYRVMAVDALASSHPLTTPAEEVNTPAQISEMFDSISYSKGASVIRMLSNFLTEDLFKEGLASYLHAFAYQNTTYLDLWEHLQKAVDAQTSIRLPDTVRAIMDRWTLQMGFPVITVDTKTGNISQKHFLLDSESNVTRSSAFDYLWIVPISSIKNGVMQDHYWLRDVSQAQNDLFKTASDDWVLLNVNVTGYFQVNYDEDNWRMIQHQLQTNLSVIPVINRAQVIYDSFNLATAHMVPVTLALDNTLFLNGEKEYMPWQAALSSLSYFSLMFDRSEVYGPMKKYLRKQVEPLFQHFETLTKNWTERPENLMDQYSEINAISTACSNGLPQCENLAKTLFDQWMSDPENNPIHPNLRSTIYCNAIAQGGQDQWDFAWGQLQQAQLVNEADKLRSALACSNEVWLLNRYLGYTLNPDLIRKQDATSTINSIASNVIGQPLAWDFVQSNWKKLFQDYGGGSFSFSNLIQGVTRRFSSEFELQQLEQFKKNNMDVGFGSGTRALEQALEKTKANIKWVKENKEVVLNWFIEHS
Test: Aminopeptidase M inhibition, spectrophotometric, L-leucine-p-nitroanilide substrate
Type: biochemical
Conditions: porcine AMP from pig kidney, 1 mU mL^-1; 0.1 M borate buffer pH 8.0; 30 min pre-incubation at 30 °C; inhibitor 0.1-10 μM; L-leucine-p-nitroanilide 1.2 mM; absorbance 405 nm; triplicate, average of three independent experiments
Experimental: Inhibition assay spectrophotometrically performed using porcine aminopeptidase M (EC 3.4.11.2, from pig kidney—Sigma Aldrich®). After 30 min pre-incubation at 30 °C, 5 μL of the commercial aminopeptidase M enzyme (1 mU mL^−1) added to microginin solutions (concentrations of 0.1, 0.25, 0.5, 1, 5 and 10 μM). […] The final volume at the 96-well plates was 75 μL (medium composed of 0.1 M borate buffer, Ph 8.0). After 30 min pre-incubation, 30 μL of the L-leucine-p-nitroanilide substrate at the concentration of 1.2 mM were added for the microginins AMP inhibition assays. The kinetics of inhibition of AMP were determined and the reaction interrupted with the addition of 25 μL of 30% acetic acid solution.
To obtain the factor used for the calculation of specific activity, a standard curve was performed with the product of the reaction (p-nitroanilide 1 mM), obtaining the slope of the curve. Absorbance reading was performed on the Spectra Max M2-Molecular Devices® 96-well plate reader with SoftMax Pro® software version 5.3, and the p-nitroanilide product concentrations were determined by the millimolar extinction coefficient at 405 nm as 9.96 (Sigma-Aldrich). After reading the samples, the residual activity calculations performed in mU mL^−1, percentage of activity and inhibition. […]

| Compound | IC50 |
| --- | --- |
| CCCCCCC[C@@H](N)[C@H](O)C(=O)N[C@H](C(=O)N[C@@H](CC(C)C)C(=O)N[C@@H](CCc1ccc(O)cc1)C(=O)N[C@@H](Cc1ccc(O)cc1)C(=O)O)C(C)C [MG756, Ahda-Val-Leu-HTy-Tyr] (HELM PEPTIDE1{[CCCCCCC[C@@H](N)[C@H](O)C(=O)[*:2]].V.L.[O=C([C@H](CCc1ccc(O)cc1)N[*:1])[*:2]].Y}$$$$V2.0) | 3.26 ± 0.5 µM |
| CCCCCCC[C@@H](NC)[C@H](O)C(=O)N[C@H](C(=O)N[C@@H](CC(C)C)C(=O)N[C@@H](CCc1ccc(O)cc1)C(=O)N[C@@H](Cc1ccc(O)cc1)C(=O)O)C(C)C [MG770, N-Me-Ahda-Val-Leu-HTy-Tyr] (HELM PEPTIDE1{[CCCCCCC[C@@H](NC)[C@H](O)C(=O)[*:2]].V.L.[O=C([C@H](CCc1ccc(O)cc1)N[*:1])[*:2]].Y}$$$$V2.0) | 1.2 ± 0.1 µM |
